For one data set, the target named is T1, human OCT2 (Homo sapiens, UniProt O15244).
T1 sequence (O15244 1-555): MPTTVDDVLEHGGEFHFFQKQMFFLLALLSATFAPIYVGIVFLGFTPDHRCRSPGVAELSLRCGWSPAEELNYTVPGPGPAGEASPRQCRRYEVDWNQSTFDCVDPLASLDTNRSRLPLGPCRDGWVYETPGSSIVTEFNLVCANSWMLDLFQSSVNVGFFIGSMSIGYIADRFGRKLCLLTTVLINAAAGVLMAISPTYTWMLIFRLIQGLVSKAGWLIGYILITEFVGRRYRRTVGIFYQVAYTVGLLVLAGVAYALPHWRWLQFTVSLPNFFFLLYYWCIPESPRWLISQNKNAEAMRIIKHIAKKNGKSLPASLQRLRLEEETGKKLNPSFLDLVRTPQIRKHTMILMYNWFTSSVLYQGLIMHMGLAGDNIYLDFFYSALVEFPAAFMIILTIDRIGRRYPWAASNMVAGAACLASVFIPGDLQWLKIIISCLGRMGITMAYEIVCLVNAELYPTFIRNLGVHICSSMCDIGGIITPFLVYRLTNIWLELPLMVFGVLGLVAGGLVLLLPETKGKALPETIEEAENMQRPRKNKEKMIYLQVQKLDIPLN
Briefly: Cellular transport assay, HEK-293 cells expressing human OCT2. As to conditions: Danshen phenolic acid at 100 μM final concentration, 10 min; human OCT2-transfected vs mock cells.

The target in a further data set is T2, rat Bcrp (Rattus norvegicus, UniProt Q80W57).
T2 sequence (Q80W57 1-657): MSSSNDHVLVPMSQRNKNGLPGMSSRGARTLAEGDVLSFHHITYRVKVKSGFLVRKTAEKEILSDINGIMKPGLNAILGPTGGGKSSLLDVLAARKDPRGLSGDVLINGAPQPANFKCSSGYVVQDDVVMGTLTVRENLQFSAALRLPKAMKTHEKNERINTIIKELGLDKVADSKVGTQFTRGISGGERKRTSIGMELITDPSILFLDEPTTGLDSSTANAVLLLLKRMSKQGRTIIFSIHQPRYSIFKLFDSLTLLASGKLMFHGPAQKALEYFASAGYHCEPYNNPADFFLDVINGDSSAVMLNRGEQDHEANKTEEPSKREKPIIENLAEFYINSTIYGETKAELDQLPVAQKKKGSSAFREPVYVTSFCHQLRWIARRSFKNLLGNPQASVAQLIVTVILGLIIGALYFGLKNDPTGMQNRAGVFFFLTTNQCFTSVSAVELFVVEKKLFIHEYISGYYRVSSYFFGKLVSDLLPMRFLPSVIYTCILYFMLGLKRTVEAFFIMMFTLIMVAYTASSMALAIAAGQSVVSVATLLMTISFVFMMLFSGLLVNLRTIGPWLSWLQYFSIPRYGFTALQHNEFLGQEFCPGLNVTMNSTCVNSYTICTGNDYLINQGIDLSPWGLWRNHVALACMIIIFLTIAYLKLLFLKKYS
Description: Vesicular transport assay, inside-out membrane vesicles expressing rat Bcrp. Conditions: 10 min. How it is done: Inside-out membrane vesicles (5 mg protein/mL), prepared from insect cells expressing human multidrug resistance-associated protein (MRP) 2, MRP3, MRP4, breast cancer resistance protein (BCRP), bile salt export pump (BSEP), and multidrug resistance protein (MDR) one and rat Mrp2, Mrp4, Bcrp, and Bsep, and vesicles (5 mg protein/mL; prepared from the insect cells expressing no ABC transporter; serving as negative control) were obtained from Genomembrane (Kanazawa, Japan).
The test Danshen compounds at 100 µM final concentration were separately incubated with the membrane vesicles for 10 min. Buffer C (50 mM MOPS-tris, 70 mM KCl, 7.5 mM MgCl2, pH 7.0) was used for preincubation and incubation, while buffer D (40 mM MOPS-tris, 70 mM KCl, pH 7.0) was used for vesicle washing. The transport rate (pmol/mg protein/min) of the test Danshen compound was calculated using Equation (2): Transport=(CV×VV)/T/WV (2) where C V, V V, T, and W V represent concentration of the compound in vesicular lysates supernatant (μM), volume of the lysates (μL), incubation time (10 min), and amount of vesicle protein amount per well (0.05 mg), respectively. Differential transport of the test Danshen compound between ATP-containing vesicles and AMP-containing vesicles was defined as net transport ratio (TransportATP/TransportAMP ratio). […] All the incubation samples were analyzed by liquid chromatography/mass spectrometry.

The next data set concerns the target T3, rat Pept2 (Rattus norvegicus, UniProt Q63424).
T3 sequence (Q63424 1-729): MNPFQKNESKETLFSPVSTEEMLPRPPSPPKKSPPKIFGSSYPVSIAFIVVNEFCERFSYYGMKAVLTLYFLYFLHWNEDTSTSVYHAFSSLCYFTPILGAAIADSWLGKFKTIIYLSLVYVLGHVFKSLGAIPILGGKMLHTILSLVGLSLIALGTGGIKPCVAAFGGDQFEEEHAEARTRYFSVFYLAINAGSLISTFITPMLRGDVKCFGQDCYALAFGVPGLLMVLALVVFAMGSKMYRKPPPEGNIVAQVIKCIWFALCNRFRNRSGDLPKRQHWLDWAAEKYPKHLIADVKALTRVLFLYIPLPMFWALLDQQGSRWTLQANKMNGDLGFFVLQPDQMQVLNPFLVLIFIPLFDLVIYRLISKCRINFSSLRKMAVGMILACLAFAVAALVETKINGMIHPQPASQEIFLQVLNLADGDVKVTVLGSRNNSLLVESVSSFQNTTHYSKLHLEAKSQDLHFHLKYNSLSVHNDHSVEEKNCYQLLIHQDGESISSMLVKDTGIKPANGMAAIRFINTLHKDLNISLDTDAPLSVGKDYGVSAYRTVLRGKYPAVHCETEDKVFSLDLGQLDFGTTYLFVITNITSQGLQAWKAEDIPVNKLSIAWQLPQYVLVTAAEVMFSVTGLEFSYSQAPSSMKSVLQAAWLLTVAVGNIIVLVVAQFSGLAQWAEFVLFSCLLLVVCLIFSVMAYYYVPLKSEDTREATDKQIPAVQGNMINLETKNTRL
Briefly: Cellular transport assay, HEK-293 cells expressing rat Pept2. Conditions: Danshen phenolic acid at 100 μM final concentration, 10 min, incubation pH 6.0; rat Pept2-transfected vs mock cells.

On the set-up of data set [1]: method as in Lu et al., 2008. As to conditions: ref Lu et al., 2008; cited from earlier work.
[2] abbreviates: Danshen phenolic acid at 100 μM final concentration, rat Bcrp vesicles.

Here are results for 6 molecules from article PMC9127186, “Molecular Basis Underlying Hepatobiliary and Renal Excretion of Phenolic Acids of Salvia miltiorrhiza Roots (Danshen)” (Frontiers in Pharmacology, 2022).

For `O=C(/C=C/c1ccc(O)c2c1[C@H](C(=O)O)[C@@H](c1ccc(O)c(O)c1)O2)O[C@H](Cc1ccc(O)c(O)c1)C(=O)O` [Lithospermic acid, lithospermic acid], the “TransportTC/TransportMC ratio (net transport ratio)” value (“TransportTC/TransportMC ratio” below) is 0.89 ± 0.31 at human OCT2 and 0.85 ± 0.14 on rat Pept2. The “TransportATP/TransportAMP ratio (net transport ratio)” value (from here on “TransportATP/TransportAMP ratio”) on rat Bcrp (setting [2]) was 1.27 ± 0.20.
For the molecule `O=C(O)c1ccc(O)c(O)c1` [Protocatechuic acid, protocatechuic acid], the “TransportTC/TransportMC ratio” value on human OCT2 was found to be 0.75 ± 0.35; on rat Pept2, 1.21 ± 0.26. For the same molecule, at rat Bcrp (setting [2]), the “TransportATP/TransportAMP ratio” value stood at 0.94 ± 0.21. For the same molecule, the membrane permeability entry in data set [1] is reported as “fairly good”.
In the case of `O=C(/C=C/c1ccc(O)c(O)c1)O[C@H](Cc1ccc(O)c(O)c1)C(=O)O` [Rosmarinic acid, rosmarinic acid], the “TransportATP/TransportAMP ratio” value at rat Bcrp (rat, not told, 100 μM, pH 7) amounted to 1.45 ± 0.32. Also, the membrane permeability entry in data set [1] is listed as “poor”.
Regarding `O=C(/C=C/c1ccc(O)c(O)c1/C=C/c1ccc(O)c(O)c1)O[C@H](Cc1ccc(O)c(O)c1)C(=O)O` [Salvianolic acid A, salvianolic acid A], the “TransportATP/TransportAMP ratio” value at rat Bcrp (rat, not told, 100 μM, pH 7) is recorded as 1.31 ± 0.04.
With `O=C(O)Cc1c(/C=C/C(=O)O[C@H](Cc2ccc(O)c(O)c2)C(=O)O)ccc(O)c1O` [Salvianolic acid D, salvianolic acid D], the “TransportTC/TransportMC ratio” value is 0.85 ± 0.26 on human OCT2 and 1.88 ± 0.45 at rat Pept2. In data set [1], the membrane permeability result is listed as “poor”.
Consider salvianolic acid B, for which the “TransportTC/TransportMC ratio” value on human OCT2 stood at 0.75 ± 0.23; on rat Pept2, 0.94 ± 0.21. Moreover, the “TransportATP/TransportAMP ratio” value at rat Bcrp (setting [2]) was 1.13 ± 0.14.
